Consider 1 compound from article PMC11249626, “Fluorophore-Labeled Pyrrolones Targeting the Intracellular Allosteric Binding Site of the Chemokine Receptor CCR1” (ACS Pharmacology & Translational Science, 2024).

Like-named read-outs stand apart in the source and are kept apart here.

In the assay the target is T1, CCR1 (Homo sapiens, UniProt P32246).
T1 sequence (P32246 1-355): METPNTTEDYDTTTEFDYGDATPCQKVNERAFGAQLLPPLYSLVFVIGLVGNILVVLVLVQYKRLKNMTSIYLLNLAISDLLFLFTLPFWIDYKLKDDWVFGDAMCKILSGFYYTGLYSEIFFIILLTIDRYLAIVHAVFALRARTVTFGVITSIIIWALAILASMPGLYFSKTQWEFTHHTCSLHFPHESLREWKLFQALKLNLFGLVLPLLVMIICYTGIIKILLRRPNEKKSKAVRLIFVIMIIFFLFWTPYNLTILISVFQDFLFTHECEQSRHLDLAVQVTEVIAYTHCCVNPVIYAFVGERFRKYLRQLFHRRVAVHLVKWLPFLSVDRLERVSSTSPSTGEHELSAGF
As to the kind of experiment: Membrane-based NanoBRET association and dissociation kinetic assays with 12. The assay is classed as binding. Further details: Promega pNLF1-C (Nluc) #CCR010TN00; host or cells: HEK293T, transient (PEI). Here is the method: Membrane-based NanoBRET association kinetic assay: 5 µL of a solution of the fluorescent ligand (12) diluted to varying concentrations (final assay concentrations: 1–3 µM) in assay buffer and 5 µL of assay buffer were transferred to a 384-well plate. For the determination of non-specific binding, we added a solution of a non-labeled competitor dissolved in assay buffer (5, final assay concentration: 10 µM) instead. After the addition of 5 µL of a furimazine solution (final assay dilution:
1:630 in assay buffer), plates were incubated for 3 minutes in the dark at ambient temperature. Subsequently, 20 µL of the membrane preparation (3 µg total protein/well) were added (final assay volume: 35 µL). BRET ratios were measured with a CLARIOstar microplate reader using 620/10 nm and 475/30 nm emission filters over time at ambient temperature.
The obtained data were analyzed using the association kinetics (one ligand concentration) algorithm in PRISM10.2.1 (GraphPad, USA) to determine association kinetics using a pre-determined koff as a constraint.
Membrane-based NanoBRET dissociation kinetic assay: 5 µL of a solution of the fluorescent ligand (12) diluted to varying concentrations (final assay concentrations: 0.25–3 µM) in assay buffer and 5 µL of assay buffer were transferred to a 384-well plate. In order to determine non-specific binding, we added a solution of a non-labeled competitor dissolved in assay buffer (5, final assay concentration: 10 µM) instead of the 5 µL of assay buffer. Then, 20 µL of the membrane preparation (3 µg total protein/well) were added, and plates were incubated for 1 h at ambient temperature in the dark.
Subsequently, 5 µL of a furimazine solution (final assay dilution: 1:630 in assay buffer) were added. Plates were incubated for further 5 minutes in the dark at ambient temperature. Thereafter, 1 µL of a solution of a […] competitor dissolved in assay buffer (5, final assay concentration: 10 µM) was added. For control experiments, we added 1 µL of assay buffer instead of the competitor solution. BRET ratios were measured with a CLARIOstar microplate reader using 620/10 nm and 475/30 nm emission filters over time at ambient temperature. Specific BRET ratios were calculated as a difference of total and non -specific binding. […]
mM HEPES, no phenol red supplemented with 5% FBS) was added and cells were incubated at 37 °C for 30 minutes.
Then, 5 µL of a solution containing the fluorescent ligand ( 12), diluted in assay medium at varying concentrations, were added in case of saturation binding experiments. To determine non-specific binding, 5 µL of a solution of 5 dissolved in assay medium (final assay concentration: 10 µM) were added. For competition binding experiments, 5 µL of a solution of the fluorescent ligand (12) diluted in assay medium (final assay concentration: 1 µM) and 5 µL of a solution of the potential competitor (diluted from 10 mM DMSO-stock solutions with assay medium) at varying concentrations were added to the corresponding wells. After 90 min of incubation at 37 °C, 5 µL of a furimazine solution (final assay dilution: 1:2500, diluted with assay medium) were added. After a further incubation of 5 min in the dark at 37 °C, BRET ratios were measured with a CLARIOstar microplate reader using 620/10 nm and 475/30 nm emission filters. Total, non-specific and specific binding, which was calculated as a difference of total and non-specific binding, were analyzed using the algorithms for one-site saturation binding in PRISM10.2.1 (GraphPad, USA). To determine the inhibition constants (Ki) of the potential competitors, data were normalized to total and non-specific binding and analyzed using the one site-fit Ki equation in PRISM10.2.1 (GraphPad, USA).
Kinetic solubility assay: Kinetic solubility was assessed in saline phosphate buffer pH 7.25 (1.19 g Na2HPO4·12 H2O, 0.095 g KH2PO4 and 4.0 g NaCl in 0.5 L double distilled water). The pH was adjusted to 7.25 with concentrated […]
hydrochloric acid. […]

Take `CN(C)c1ccc2c(-c3cc(C(=O)NCCOCCOCc4cn(CCCC(=O)C5=C(O)C(=O)N(c6ccc(Br)cc6F)C5C5CCCCC5)nn4)ccc3C(=O)[O-])c3ccc(=[N+](C)C)cc-3oc2c1` (stereo not drawn) [compound 12]: the Kd (CCR1_Nluc membranes, from kon and koff, read-out: kinetic KD value KD(kin.)) was determined as 317 ± 32 nM. Moreover, the koff reads like this: (CCR1_Nluc membranes, read-out: koff (converted)) 0.00233 s⁻¹; (dissociation at room temperature (membranes), 12 at 250-3000 nM, read-out: koff, single experiments (Table S1) (converted)) 0.00172 s⁻¹; (dissociation at room temperature (membranes), read-out: koff, mean (Table S1) (converted)) 0.00233 s⁻¹. Moreover, the kon reads like this: (CCR1_Nluc membranes, read-out: kon (converted)) 7350 M⁻¹ s⁻¹; (association at room temperature (membranes), read-out: kon, mean (Table S1) (converted)) 7360 M⁻¹ s⁻¹. Also, the residence time (CCR1_Nluc membranes, read-out: residence time tr) amounted to 7.31 ± 0.22 min. The “tR, mean (Table S1)” value (dissociation at room temperature (membranes)) is reported as 7.31 min. Besides, the “koff, single experiments (Table S1)” value (dissociation at room temperature (membranes), 12 at 250-3000 nM) came out at 0.001978 s⁻¹.
